Experimental findings from patent US8772266B2, “Fungicide pyrazole carboxamides derivates” (Bayer Cropscience AG, priority 2009, dated 2014) are described below.

The subject of the first data set is Sphaerotheca fuliginea. In words: In vivo preventive test on Sphaerotheca fuliginea (cucumber), Example G. The settings on record: 10 ppm of active ingredient, evaluated 7 days after inoculation. An excerpt: After the spray coating has dried on, the plants are inoculated with an aqueous spore suspension of Sphaerotheca fuliginea.
`CC(C)c1ccc(F)cc1CN(C(=O)c1c(C(F)F)nn(C)c1F)C1CC1` [Example 135]: the disease control amounted to 100%.
On the same count and under the same terms, the value for `CCCCc1ccc(F)c(F)c1CN(C(=O)c1c(C(F)F)nn(C)c1F)C1CC1` [Example 126] was 100%.
Regarding `CCc1cccc(Cl)c1CN(C(=O)c1c(C(F)F)nn(C)c1F)C1CC1` [Example 124], the disease control is on record as 100%.
`CC(c1cccc2c1CCC(C)(C)C2)N(C(=O)c1c(C(F)F)nn(C)c1F)C1CC1` (single isomer, unassigned) [Example 44a] displayed a disease control of 100%.
`Cn1nc(C(F)F)c(C(=O)N(Cc2cc(F)ccc2C2CC2)C2CC2)c1F` [Example 123] displayed a disease control of 100%.
Same read-out and setting: the result for `Cn1nc(C(F)F)c(C(=O)N(Cc2c(C(F)(F)F)ccc(F)c2C(F)(F)F)C2CC2)c1F` [Example 117] reads 100%; that for `Cn1nc(C(F)F)c(C(=O)N(Cc2c(Cl)cccc2C2CC2)C2CC2)c1F` [Example 113], 100%.
`CC(C)Cc1ccc(Cl)cc1CN(C(=O)c1c(C(F)F)nn(C)c1F)C1CC1` [Example 120]: the disease control came out at 100%.
Regarding `CCCCc1ccc(Cl)cc1CN(C(=O)c1c(C(F)F)nn(C)c1F)C1CC1` [Example 119], the disease control was 100%.
The compound `Cn1nc(C(F)F)c(C(=O)N(Cc2c(Cl)cccc2[Si](C)(C)C)C2CC2)c1F` [Example 116] registered a disease control of 100%.
`CCCCc1ccc(F)cc1CN(C(=O)c1c(C(F)F)nn(C)c1F)C1CC1` [Example 121] returned a disease control of 100%.
For `CC(C)c1ccc(F)c(F)c1CN(C(=O)c1c(C(F)F)nn(C)c1F)C1CC1` [Example 136], the disease control was 100%.
In turn, `Cn1nc(C(F)F)c(C(=O)N(Cc2cc(F)ccc2[Si](C)(C)C)C2CC2)c1F` [Example 118] showed a disease control of 100%.
Compound `Cn1nc(C(F)F)c(C(=O)N(Cc2c(Cl)cccc2C2CCCC2)C2CC2)c1F` [Example 141] yielded a disease control of 100%.
`CC(C)Cc1ccc(F)c(F)c1CN(C(=O)c1c(C(F)F)nn(C)c1F)C1CC1` [Example 112]: the disease control worked out at 100%.
The compound `Cn1nc(C(F)F)c(C(=O)N(Cc2c(C3CCCC3)ccc(F)c2F)C2CC2)c1F` [Example 139] came in with a disease control of 100%.
For the compound `Cn1nc(C(F)F)c(C(=O)N(Cc2c(F)cccc2C2CCCC2)C2CC2)c1F` [Example 137], the disease control was determined as 100%.
In turn, `Cn1nc(C(F)F)c(C(=O)N(Cc2c(F)cccc2C2CC2)C2CC2)c1F` [Example 130] gave a disease control of 100%.

System in another data set: not listed separately
In words: logP by HPLC on reversed-phase column (EEC Directive 79/831 Annex V.A8). The settings on record: HPLC on reversed-phase column (C 18), 40° C., 0.1% aqueous formic acid and acetonitrile, linear gradient 10% to 90% acetonitrile.
On to `CC(C)CC(C)c1ccccc1CN(C(=O)c1c(C(F)F)nn(C)c1F)C1CC1` (centres unmarked) [Example 154], for which the logP (commonly the decadic logarithm of the partition coefficient of the neutral form, usually between octanol and water) turned out to be 4.82.
Same read-out and setting: the value for `Cc1cccc(C)c1CN(C(=O)c1c(C(F)F)nn(C)c1F)C1CC1` [Example 108] was 3.31.
In turn, `CCc1ccccc1CN(C(=S)c1c(C(F)F)nn(C)c1F)C1CC1` [Example 133] showed a logP of 4.06.
Compound `Cn1nc(C(F)F)c(C(=O)N(C2CC2)C2CCc3cccc(Cl)c32)c1F` (centres unmarked) [Example 109] gave a logP of 3.42.
Compound `Cn1nc(C(F)F)c(C(=O)N(Cc2c(Cl)cccc2[Si](C)(C)C)C2CC2)c1Cl` [Example 151] showed a logP of 4.82.
In the case of `CCC(C)c1ccccc1CN(C(=O)c1c(C(F)F)nn(C)c1F)C1CC1` (centres unmarked) [Example 156], the logP is on record as 4.06.
Compound `Cn1nc(C(F)F)c(C(=O)N(Cc2ccccc2Oc2ccc(F)cc2)C2CC2)c1F` [Example 110] registered a logP of 3.85.
Regarding `CCCCC1Cc2ccccc2C1N(C(=O)c1c(C(F)F)nn(C)c1F)C1CC1` (centres unmarked) [Example 100], the logP was 4.85.
Still for that read-out and setting: the result for `CC(C)c1ccc(F)cc1CN(C(=O)c1c(C(F)F)nn(C)c1Cl)C1CC1` [Example 146] reads 3.92; that for `Cc1cccc2c1CCC2N(C(=O)c1c(C(F)F)nn(C)c1F)C1CC1` (racemic) [Example 102], 3.55; that for `CC(c1cccc(I)c1)N(C(=O)c1c(C(F)F)nn(C)c1F)C1CC1` (centres unmarked) [Example 103], 3.76.
For `CC(C)Cc1cccc(Cl)c1CN(C(=O)c1c(C(F)F)nn(C)c1Cl)C1CC1` [Example 150], the logP is recorded as 4.74.
For `Cn1nc(C(F)F)c(C(=O)N(Cc2c(Cl)cc(Cl)cc2Cl)C2CC2)c1F` [Example 107], the logP turned out to be 3.99.
Compound `CC(c1cc(Br)cc(Br)c1)N(C(=O)c1c(C(F)F)nn(C)c1F)C1CC1` (racemic) [Example 106] had a logP of 4.26.
Take `Cn1nc(C(F)F)c(C(=O)N(Cc2ccccc2C2CC2C2CC2)C2CC2)c1F` (centres unmarked) [Example 155]: the logP was 4.25.
Take `Cn1nc(C(F)F)c(C(=O)N(Cc2cc(Cl)ccc2C2CCCC2)C2CC2)c1Cl` [Example 152]: the logP is 4.92.
In turn, `Cn1nc(C(F)F)c(C(=O)N(Cc2cccc(C(F)(F)F)c2Cl)C2CC2)c1F` [Example 104] came in with a logP of 3.64.

The data set is the same for the next values; noted with them: HPLC, reversed-phase column (C 18), 40° C., 0.1% aqueous formic acid and acetonitrile, linear gradient 10% to 90% acetonitrile.
For `Cn1nc(C(F)F)c(C(=O)N(C2CC2)C2CCOc3ccccc32)c1F` (centres unmarked) [Example 86], the logP is reported as 2.84.
In the case of `Cn1nc(C(F)F)c(C(=O)N(Cc2ccccc2I)C2CC2)c1Cl` [Example 35], the logP stood at 3.6.
`CC(c1ncc(Cl)cc1Cl)N(C(=O)c1c(C(F)F)nn(C)c1Cl)C1CC1` (centres unmarked) [Example 58]: the log partition coefficient (logP) was 3.69.
The same measure, in the same setting: the value for `CCCCC(c1ccccc1)N(C(=O)c1c(C(F)F)nn(C)c1F)C1CC1` (centres unmarked) [Example 94] was 4.26; that for `CC(c1cccc(C(F)(F)c2ccccc2)c1)N(C(=O)c1c(C(F)F)nn(C)c1F)C1CC1` (centres unmarked) [Example 78] was 4.15; that for `Cn1nc(C(F)F)c(C(=O)N(Cc2c(Br)cccc2Br)C2CC2)c1F` [Example 92] was 3.51.
Still for that read-out and setting: the value for `Cn1nc(C(F)F)c(C(=O)N(Cc2c(Cl)cccc2I)C2CC2)c1F` [Example 19] was 3.58.
Consider `CCC(c1ccc(Cl)cc1Cl)N(C(=O)c1c(C(F)F)nn(C)c1F)C1CC1` (centres unmarked) [Example 69], for which the logP was 4.2.
Consider `Cc1cc(C)c2c(c1)C(N(C(=O)c1c(C(F)F)nn(C)c1F)C1CC1)CCC2` (centres unmarked) [Example 74], for which the logP turned out to be 4.25.
In turn, `Cc1cc(Br)c(CN(C(=O)c2c(C(F)F)nn(C)c2F)C2CC2)cc1F` [Example 75] displayed a logP of 3.73.
On the same count and under the same terms, the result for `Cn1nc(C(F)F)c(C(=O)N(Cc2ccccc2C(C)(C)C)C2CC2)c1F` [Example 76] reads 4.06; that for `Cn1nc(C(F)F)c(C(=O)N(Cc2ccccc2[Si](C)(C)C)C2CC2)c1Cl` [Example 37], 4.49; that for `CC(c1ccccc1C(F)(F)F)N(C(=O)c1c(C(F)F)nn(C)c1Cl)C1CC1` (centres unmarked) [Example 55], 3.64.
With `CCc1cccc(CC)c1CN(C(=O)c1c(C(F)F)nn(C)c1F)C1CC1` [Example 88], the logP stood at 4.01.
Turning to `Cn1nc(C(F)F)c(C(=S)N(Cc2ncc(C(F)(F)F)cc2Cl)C2CC2)c1F` [Example 7], the logP was 4.11.
The same measure, in the same setting: the result for `CC(C)c1ccccc1CN(C(=O)c1c(C(F)F)nn(C)c1Cl)C1CC1` [Example 34] reads 3.81; that for `Cn1nc(C(F)F)c(C(=O)N(C2CC2)C2CCCc3cccc(Br)c32)c1F` (centres unmarked) [Example 97], 3.78; that for `CCCCC(c1ccc(C(F)(F)F)cc1)N(C(=O)c1c(C(F)F)nn(C)c1F)C1CC1` (centres unmarked) [Example 93], 4.8.
`CC(c1cc(C(F)(F)F)ccc1Cl)N(C(=O)c1c(C(F)F)nn(C)c1F)C1CC1` (centres unmarked) [Example 96]: the logP turned out to be 3.89.
Compound `CC(c1ccccc1C(F)(F)F)N(C(=O)c1c(C(F)F)nn(C)c1F)C1CC1` (centres unmarked) [Example 66] returned a logP of 3.42.
The same measure, in the same setting: the result for `CC(c1ccccc1OC(F)(F)F)N(C(=O)c1c(C(F)F)nn(C)c1F)C1CC1` (centres unmarked) [Example 91] reads 3.6.
On to `CCC(c1cc(Cl)cc(Cl)c1)N(C(=O)c1c(C(F)F)nn(C)c1F)C1CC1` (centres unmarked) [Example 71], for which the logP is recorded as 4.41.
As to `CC(c1ccccc1)N(C(=O)c1c(C(F)F)nn(C)c1F)C1CC1` (centres unmarked) [Example 95], the logP came out at 3.06.
In turn, `CC(c1ccc(C(F)(F)c2ccccc2)cc1)N(C(=O)c1c(C(F)F)nn(C)c1F)C1CC1` (centres unmarked) [Example 77] yielded a lipophilicity (logP) of 4.23.
The same measure, in the same setting: the result for `CC(C)Cc1cc(Cl)ccc1CN(C(=O)c1c(C(F)F)nn(C)c1F)C1CC1` [Example 31] reads 4.59; that for `Cn1nc(C(F)F)c(C(=O)N(Cc2cccc(-c3ccccc3)c2)C2CC2)c1Cl` [Example 67], 3.94.
Take `Cn1nc(C(F)F)c(C(=O)N(Cc2ccc(Cl)cc2Cl)C2CC2)c1Cl` [Example 59]: the logP is 3.89. The logP values of the last two compounds are within 0.2 log units of each other.
Still for that read-out and setting: the result for `Cn1nc(C(F)F)c(C(=O)N(C2CC2)C2CC(C)(C)c3ccccc32)c1F` (centres unmarked) [Example 85] reads 3.87.
Regarding `Cc1cc(Cl)c(CN(C(=O)c2c(C(F)F)nn(C)c2F)C2CC2)cc1C` [Example 79], the logP is 3.85.
Consider `CC(c1ccc(Oc2ccccc2)cc1)N(C(=O)c1c(C(F)F)nn(C)c1F)C1CC1` (centres unmarked) [Example 65], for which the logP was 4.14.
The same measure, in the same setting: the result for `Cn1nc(C(F)F)c(C(=O)N(Cc2ccccc2C(F)(F)F)C2CC2)c1Cl` [Example 56] reads 3.58.
`CC(c1ccccc1Br)N(C(=O)c1c(C(F)F)nn(C)c1F)C1CC1` (centres unmarked) [Example 98] returned a logP of 3.31.
Take `Cn1nc(C(F)F)c(C(=O)N(Cc2cc(Br)ccc2I)C2CC2)c1F` [Example 21]: the logP is reported as 3.94.
Turning to `Cn1nc(C(F)F)c(C(=O)N(Cc2ncc(C(F)(F)F)cc2Cl)C2CC2)c1Cl` [Example 57], the logP came out at 3.55.
As to `CC(c1ccc(Oc2ccccc2)cc1)N(C(=O)c1c(C(F)F)nn(C)c1Cl)C1CC1` (centres unmarked) [Example 60], the logP came to 4.31.
`Cn1nc(C(F)F)c(C(=O)N(Cc2cc(Br)c3c(c2Br)OCO3)C2CC2)c1F` [Example 87] had a logP of 3.44.
